Peptide text beside a SMILES is read from it.
Tests used:
[1] = tested on: maize pollen tubes; assay: Pollen tube burst assay; type: cell-based, Zea mays; conditions: for maize pollen tube burst: mean ±SD
Method: The assay was applied as described ([Woriedh et al., 2013]). Briefly, freshly collected pollen was immediately distributed onto Petri dishes containing droplets of 10 µL PGM at different pH values. Pollen tubes started to burst or to grow after about 10min. Pollen tubes were subjected to further studies only if germination rates exceeded 80%. After optimization, PGM at pH 5 was applied to all pollen tube assays. A 10 µL solution of the above peptides or acetonitrile as a negative control was added to each droplet of germinated pollen using a Cell-TramH Air pump (Eppendorf) and a glass micropipette. During this assay, droplets were observed using an Eclipse TE2000 inverted microscope (Nikon) equipped with a 1.4 Megapixel digital AxioCam MRm camera (black and white) and AxioVision digital image processing software (Release 4.8).

[2] = tested on: F. graminearum conidia; type: cell-based, Fusarium graminearum; conditions: for fungal germination in Fusarium / conidia that did not germinate at all: 90 µM peptide; for fungal germination in Fusarium: 24 hours in PGM, absorbance at 595 nm, germination above 60% taken as threshold; for conidia that did not germinate at all: microscopy; for concentration giving complete suppression of conidia germination: PGM, 24h
[3] = tested on: F. graminearum conidia and mycelia; type: cell-based, Fusarium graminearum; conditions: 90 µM peptide, after 6h; microscopy
[4] = tested on: F. graminearum conidia and mycelia; type: cell-based, Fusarium graminearum; conditions: NBT staining of superoxide; 60 µM peptide (Fig. 6)
[5] = tested on: U. maydis spores; type: cell-based, Ustilago maydis
[6] = tested on: U. maydis spores; conditions: for inhibition of germination of Ustilago spores: 24 h, 90 μM
[7] = tested on: U. maydis spores; type: cell-based, Ustilago maydis; remark: listed apart in the source
[8] = tested on: maize pollen tube; parameters: method as in Amien et al., 2010; conditions: ref Amien et al., 2010; cited from earlier work

Compound | maize pollen tube burst ([1]; peptide concentration not stated at this place (100nM, 250nM and 500nM applied), PGM pH 5, 5min after application) [%] | fungal germination in Fusarium [2] [%] | conidia that did not germinate at all [2] | concentration giving complete suppression of conidia germination [2] [µM] | effect on developed F. graminearum mycelia (24 hpi) [3] | ROS production in F. graminearum conidia and mycelia [4] | ROS production in U. maydis spores [5] | concentration giving complete suppression of spore germination [6] [µM] | germination of Ustilago spores [6] [%] | spores that did not germinate at all [6] | inhibition of germination of Ustilago spores [6] [%] | maize pollen tube burst ([1]; 500nM peptide in PGM pH 5, measured 5min after application, P < 0.001) [%] | time after application until pollen tubes started to burst ([1]; PGM pH 5, in words) | effect on U. maydis spores [7] | effect on maize pollen tube growth behaviour [8]
CC(C)C[C@H](NC(=O)[C@H](CS)NC(=O)[C@H](CCCNC(=N)N)NC(=O)CNC(=O)CNC(=O)[C@@H](NC(=O)[C@H](Cc1ccc(O)cc1)NC(=O)CNC(=O)[C@H](CCCCN)NC(=O)CNC(=O)[C@H](CCC(=O)O)NC(=O)[C@H](C)NC(=O)[C@H](CCCNC(=N)N)NC(=O)[C@H](CS)NC(=O)CN)[C@@H](C)O)C(=O)O [ES-c] (H-GCRAEGKGYTGGRCL-OH; N-terminus and C-terminus assumed) | 29.3±4.2 | 19.1±3.8 | Approximately 80% | 120 | breaking/bursting of cell walls and release of vacuoles | strongly produced ROS | ROS production was also detected | 120 | 19.1±3.8 | Approximately 80% | 80.9±1.0 | – | – | – | –
CC[C@H](C)[C@H](NC(=O)CNC(=O)[C@H](CC(=O)O)NC(=O)[C@H](CC(C)C)NC(=O)[C@@H](NC(=O)[C@@H](NC(=O)[C@@H]1CCCN1C(=O)[C@H](CO)NC(=O)[C@@H](NC(=O)[C@H](CC(C)C)NC(=O)[C@H](CS)NC(=O)[C@@H](N)CCCNC(=N)N)[C@@H](C)CC)[C@@H](C)CC)[C@@H](C)O)C(=O)N[C@@H](CC(C)C)C(=O)N[C@@H](CS)C(=O)N[C@@H](Cc1ccc(O)cc1)C(=O)O [ES-d] (H-RCLISPITLDGILCY-OH; N-terminus and C-terminus assumed) | – | 20.6±2.1 | Approximately 80% | 120 | breaking/bursting of cell walls and release of vacuoles | strongly produced ROS | ROS production was also detected | 120 | 20.6±2.1 | Approximately 80% | 78.7±1.0 | 82.5±5.2 | within a few seconds | burst of swelling spores and excretion of vacuoles and cell components | –
AFP2: anti-fungal protein AFP2 from radish (Raphanus sativus) (QKLCQRPSGTWSGVCGNNNACKNQCIRLEKARHGSCNYVFPAHKCICYFPC; UniProt P30230 30-80, looked up) | – | – | – | – | – | – | – | – | – | – | – | – | – | – | did not affect

From PMC4526917 (Journal of Experimental Botany, 2015)
